In PubChem BioAssay (NCI):
Several values for one entry are separate records, joined by “and”; a condition that tells them apart may be missing. Identical values can stand only once.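 1) Cells in 96-well plates. 2) Compound, 48 h, 5 concentrations. 3) Linear interpolation between surrounding doses. 4) Unreached endpoint = highest concentration. The concentration for 50% growth inhibition is given as GI50. TGI: total growth inhibition.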

Legend:
Experiment in all cases: NCI-60 cell line screen, 48 h
CAKI-1 renal = test system: CAKI-1 renal
COLO 205 colon = test system: COLO 205 colon
DU-145 prostate = test system: DU-145 prostate
EKVX NSCLC = test system: EKVX NSCLC
KM12 colon = test system: KM12 colon
LOX IMVI melanoma = test system: LOX IMVI melanoma
OVCAR-4 ovarian = test system: OVCAR-4 ovarian
SK-MEL-5 melanoma = test system: SK-MEL-5 melanoma
SW-620 colon = test system: SW-620 colon
U251 CNS = test system: U251 CNS

SMILES	GI50 (CAKI-1 renal)	TGI (CAKI-1 renal)	GI50 (COLO 205 colon)	TGI (COLO 205 colon)	GI50 (DU-145 prostate)	TGI (DU-145 prostate) [µM]	GI50 (EKVX NSCLC)	TGI (EKVX NSCLC)	GI50 (KM12 colon)	TGI (KM12 colon)	GI50 (LOX IMVI melanoma)	TGI (LOX IMVI melanoma) [µM]	GI50 (OVCAR-4 ovarian)	TGI (OVCAR-4 ovarian)	GI50 (SK-MEL-5 melanoma)	TGI (SK-MEL-5 melanoma) [µM]	GI50 (SW-620 colon)	TGI (SW-620 colon) [µM]	GI50 (U251 CNS)	TGI (U251 CNS)
Cc1cc(O)cc(C)c1/C=C/c1cncc(C(=O)N(C)C)c1	> 25 µM	> 25 µM	> 25 µM	> 25 µM	> 25 µM	> 25	> 25 µM	> 25 µM	> 25 µM	> 25 µM	> 25 µM	> 25	> 25 µM	> 25 µM	> 25 µM	> 25	> 25 µM	> 25	> 25 µM	> 25 µM
CCCCc1cc(O)ccc1O	33 µM	> 100 µM	74.6 µM	> 100 µM	80.7 µM	> 100	41.9 µM	> 100 µM	16.4 µM	> 100 µM	14.6 µM	63.6	13.1 µM	26.3 µM	58.3 µM	> 100	33.8 µM	> 100	37.4 µM	> 100 µM
CCc1ccc(C2=C(O)C(=O)C(c3ccc(CC)cc3)=C(O)C2=O)cc1	1.92 µM	5.27 µM	1.69 µM	5.36 µM	2.81 µM	10.6	2.35 µM	8.64 µM	1.69 µM	4.04 µM	2.84 µM	12.1	2.18 µM	7.75 µM	1.89 µM	3.86	2.87 µM	10.4	2.26 µM	10.1 µM
Cn1cnc([N+](=O)[O-])c1Sc1ncnc2nc[nH]c12	2.6 µM and 5.07 µM	> 100 µM	11.6 µM and 19.9 µM	65.1 µM and > 100 µM	3.03 µM and 4.36 µM	> 100	28.3 µM and > 100 µM	> 100 µM	4.25 µM and 10.8 µM	> 100 µM	1.11 µM and 1.63 µM	> 100	3.38 µM and 10.2 µM	> 100 µM	12.1 µM and 14.4 µM	> 100	18.8 µM and 32.1 µM	> 100	13.9 µM and 27.7 µM	> 100 µM
O=[N+]([O-])/C=C\c1ccc2c(c1)OCO2	1.69 µM	7.36 µM	3.71 µM	13.4 µM	3.07 µM	10.2	14.4 µM	34.9 µM	2.04 µM	4.43 µM	1.83 µM	4.15	11.8 µM	24.2 µM	3.68 µM	13.9	2.07 µM	4.91	1.95 µM	5.02 µM
CCN(CC)CC(C)Nc1ccc(C)c2sc3ccccc3c(=O)c12 (stereo not given)	3.04 µM	14.1 µM	1.68 µM	3.77 µM	6.68 µM	19.1	7.86 µM	24.2 µM	4.71 µM	16.9 µM	1.52 µM	3.99	7.61 µM	20.5 µM	1.48 µM	2.85	3.33 µM	13.7	3.43 µM	16.3 µM
CC[C@@]1(OC(=O)CCC(=O)O)C(=O)OCc2c1cc1n(c2=O)Cc2cc3ccccc3nc2-1		0.612 µM		8.49 µM		1.51		> 100 µM		3.2 µM		0.596		13.3 µM		0.373		16.8		2.18 µM
CC1=C(N2CC2)C(=O)c2nc3n(c2C1=O)CCC3O (stereo not given)		0.777 µM		1.33 µM		0.0717		1.13 µM		0.699 µM		1.92		0.269 µM		0.0562		0.726		0.962 µM
CCOC(=O)/C=C/c1ccc(C(=O)OCC)[nH]1	6.36 µM	> 100 µM	2.82 µM	8.38 µM	3.41 µM	19.6	9.89 µM	> 100 µM	0.601 µM	92.6 µM	5.29 µM	> 100	20.3 µM	> 100 µM	2.34 µM	8.01	1.29 µM	> 100	3.92 µM	> 100 µM
N#CC1C(N)=NNC1c1ccc(-c2ccc(-c3nc4ccccc4o3)cc2)o1 (stereo not given)	14.8 µM	44.2 µM	30.9 µM	> 100 µM	15.3 µM	41.1	14.6 µM	81.2 µM	24 µM	93.8 µM	23.3 µM	64.7	90.8 µM	> 100 µM	21.4 µM	60.5	74.9 µM	> 100	28.4 µM	> 100 µM
CC(O)C(NC(=O)C(CS)NC(=O)C(CO)NC(=O)C(CCCCN)NC(=O)C(Cc1c[nH]c2ccccc12)NC(=O)C(Cc1ccc(O)cc1)NC(=O)C(CS)NC(=O)C(N)Cc1ccccc1)C(N)=O (stereo not given)	1.08 µM	> 25 µM and 29.6 µM	20.7 µM	> 25 µM and 66.2 µM		> 25	36.1 µM	> 25 µM and 83.9 µM		> 25 µM and 58 µM		> 25	26.6 µM	> 25 µM and 94.8 µM		> 25		> 25		> 25 µM and 63.1 µM
Nc1ccc2c(c1)[O][Sn]([c]1ccccc1)([c]1ccccc1)[O]C2=O	4.89 µM	10.5 µM	6.58 µM	13.2 µM	15.5 µM	28.9	10.6 µM	25 µM	16.5 µM	33.5 µM	3.57 µM	11.5	12.9 µM	28.4 µM	11.6 µM	25	2.93 µM	8.35	8.6 µM	16.3 µM
c1cc(-c2sc(-c3ccncc3)c(-c3ccncc3)c2-c2ccncc2)ccn1		> 100 µM		27.4 µM		76		43.9 µM		65.5 µM		30.8		> 100 µM		28.6		59.5		27.8 µM
OC1CCC(Oc2cccc3cnc(Nc4ccc5nc[nH]c5c4)nc23)CC1 (stereo not given)	0.497 µM	21.5 µM	0.21 µM	0.886 µM	0.246 µM	17.2	0.487 µM	10.8 µM	0.23 µM	11.9 µM	0.231 µM	11.4	1.06 µM	16 µM	0.47 µM	6.51	0.407 µM	16.5	0.428 µM	15.7 µM
O=C(Nc1ccc(Br)cc1)c1cc(Br)cc(Br)c1O	1.73 µM	4.59 µM	2.33 µM	4.59 µM	3.56 µM	19.9	1.76 µM	7.38 µM	2.59 µM	8.09 µM	3.24 µM	10.1	3.33 µM	> 100 µM	2.15 µM	4.57	3.39 µM	12.6	2.79 µM	23.1 µM
COc1ccc([N+](=O)[O-])c2c(NCC(O)CO)ccnc12 (stereo not given)		> 100 µM		53.6 µM		> 100		82.3 µM		> 100 µM		> 100		45.7 µM		60.8		> 100		> 100 µM
CC/C=C\C[C@H](O)C/C=C1/C(=O)C=C[C@@H]1C/C=C\CCCC(N)=O	1.62 µM	3.92 µM	2.11 µM	4.72 µM	2.5 µM	11	4.29 µM	15.7 µM	1.68 µM	4.21 µM	0.35 µM	1.69	3.45 µM	16.8 µM	1.56 µM	2.97	1.58 µM	5.33	1.5 µM	4.12 µM
Nc1ncnc2c1ncn2C1OC(C(=O)O)C(O)C1O (stereo not given)		> 100 µM		> 100 µM		> 100		> 100 µM		> 100 µM		> 100		> 100 µM		> 100		> 100		> 100 µM
CC1=CC[C@@H]2C(C)(C)[C@@H](O)CC[C@@]2(C)[C@@H]1COc1ccc2ccc(=O)oc2c1	4.11 µM	20.9 µM	5.35 µM	23.6 µM	5.39 µM	17.8	10.3 µM	26.7 µM	4.18 µM	15.7 µM	4.77 µM	19	3.66 µM	12.7 µM	3.48 µM	12.7	9.94 µM	27.2	8.82 µM	27.9 µM
COC(=O)c1ccc2c(c1)c1c(C)c3cnccc3c(C)c1n2C	0.0354 µM	0.61 µM	0.0387 µM	0.277 µM	0.0513 µM	1.28	0.186 µM	0.623 µM	0.0495 µM	1.89 µM	0.0391 µM	0.194	0.0839 µM	0.531 µM	0.0866 µM	0.253	0.0375 µM	1.31	0.0499 µM	1.48 µM
O=C(N/N=C/c1ccc(F)cc1)c1[nH]c2ccc(I)cc2c1-c1ccccc1	0.399 µM	56.1 µM	0.482 µM	1.7 µM	0.479 µM	2.46	0.47 µM	> 26.9 µM	0.385 µM	2.11 µM	0.767 µM	> 100	0.702 µM	> 87.4 µM	0.417 µM	2.52	0.4 µM	> 100	0.484 µM	> 37.9 µM
O=c1c(OC/C(=N/O)c2ccccc2)c(-c2ccccc2)oc2ccccc12	9.52 µM	40.8 µM	14.8 µM	42.9 µM	17.1 µM	> 50	12.3 µM	30.1 µM	10.6 µM	24.6 µM	10.5 µM	19.5	38.6 µM	> 50 µM	7.88 µM	15	11.4 µM	25.4	11 µM	27.3 µM
C=C1C(=O)O[C@H]2[C@H]1CC/C(COC(=O)c1ccc(C(=O)O)s1)=C\CC[C@@]1(C)O[C@@H]21	1.71 µM	3.11 µM	2.01 µM	3.92 µM	1.59 µM	3.13	2.21 µM	5.68 µM	2.82 µM	8.46 µM	1.49 µM	3.08	3.18 µM	10.5 µM	3.64 µM	13.3	1.61 µM	3.79	2.61 µM	8.37 µM
CN(C)CN1C(=O)S/C(=C2\C(=O)N(CN(C)C)c3ccccc32)C1=O		97.9 µM		> 100 µM		> 100		> 100 µM		> 100 µM		73.2		> 100 µM		> 100		93.1		> 100 µM
Cc1ccc(-c2cc3nc(-c4ccccc4)nc(C(Cl)Cl)n3n2)cc1	0.668 µM	1.33 µM	1.06 µM	2.34 µM	0.573 µM	1.2	0.752 µM	1.51 µM	0.701 µM	1.96 µM	> 50 µM	> 50	0.671 µM	1.73 µM	> 50 µM	> 50	0.851 µM	2.29	0.419 µM	1.6 µM
CC1(C)C(=O)/C(=C\c2ccco2)C[C@]2(C)[C@H]3CC=C4[C@@H]5C[C@](C)(C(=O)O)CC[C@]5(C)CC[C@@]4(C)[C@]3(C)CC[C@@H]12	10.6 µM	28.2 µM	9.31 µM	25.5 µM	9.87 µM	24.2	4.63 µM	17.3 µM	5.88 µM	19.5 µM	9.56 µM	22.2	12.8 µM	27 µM	10.5 µM	22.5	10.2 µM	25.9	7.92 µM	24.8 µM
Cc1ccc(N2C(=O)C(Cl)=C(Nc3cccc(O)c3)C2=O)cc1Cl	17 µM	34.6 µM	26.4 µM	73 µM	16.9 µM	31.5			17 µM	31.6 µM	16.4 µM	33.2	26.9 µM	76.3 µM	15 µM	28.9			15.7 µM	31 µM
